Data taken from patent US6841661B2, “Glycopeptide antibacterial compounds, compositions containing same and methods of using same” (Princeton Univerisity, priority 1999, dated 2005).
Converted amounts (≈) assume the structure as drawn.

What was measured:
[1] = system: Staphylococcus aureus strain MB2985; experiment: In vivo mouse methicillin-sensitive Staphylococcus aureus septicemia protection; design: species or system ICR female mice
Method: Selected compounds of the invention are tested in an in vivo mouse model. Single dose subcutaneous antibiotic protection from septicemic infections is measured as described by Gill, C. J., J. J. Jackson, L. Gerckens, B. Pelak, R. Thompson, J. Sundelof, H. Kropp and H. Rosen. Antimicrob. Agents Chemother. 42:1996-2001 (1998). Survival is monitored for seven days. ED50's and LD50's are determined by the method of Knudsen and Curtis. J. Am. Stat. Assoc. 42:282-296 (1947). Septicemia is induced in 20 gram ICR (derived from CD-I) female mice by intraperitoneal infection with Staphylococcus aureus strain MB2985. Infection is given i.p. in Brain Heart Broth (BHB) at an infectious inoculum of 1.8×10^7 cfu/mouse. Drug is administered subcutaneously immediately after the infection is initiated.

[2] = system: E. faecium CL 4931 (VanA); experiment: microbe, parasite or virus in culture; format: cell-based; conditions: for MIC, CL4931: E. faecium CL 4931 (VanA)
Outline: (§1)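 NCCLS M7-A4-based broth microdilution with twofold serial dilutions, incubated at 35° C; medium BHI for enterococci and VISA/MRSA, cation-adjusted Mueller-Hinton for E. coli. Inoculum about 1-5×10^6 CFU/ml (enterococci) or 3-7×10^5 CFU/ml (others); MIC is lowest concentration with no visible growth, read at 18-20 hr for E. coli, 22-24 hr otherwise.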

MRSA MH 76 = experiment: In vitro MIC panel assay (NCCLS broth microdilution); format: cell-based, Staphylococcus aureus; conditions: Staphylococcus aureus, MRSA
Source text: (§2) National Committee for Clinical Laboratory Standards (NCCLS) guidelines [Methods for Dilution Antimicrobial Susceptibility Tests for Bacteria that Grow Aerobically-Fourth Edition; Approved Standard (NCCLS Document M7-A4, January 1997)] are used to establish the assay, although variations are made to optimize the published method according to the specific needs of the present investigation.
(§3) The test panel currently includes eight enterococci and 13 staphylococci, which are selected based upon their antibiotic susceptibility profiles. The methicillin-sensitive Staphylococcus aureus (MSSA) strain MB2985 (Smith isolate) is used to assesses the potential for serum protein binding of the compounds. The paired Gram-negative strains ASP #49 (envA-) and ASP #50 (envA+) (M. Salvatore/N. Lee) are included to judge membrane effects. Table 3 presents a detailed description of the strains included in the panel, including some of the sources of the strains of bacteria.
(§4) The glycopeptide antibiotic teicoplanin is included whenever possible. […]
(§5) The number of CFU/mL is determined on BHI agar plates, although this is not done routinely because titers of overnight cultures are relatively constant. […]

% Plasma Bound = format: in vitro ADME
S. aureus MB 2985 = experiment: MIC by microdilution in Mueller-Hinton broth (in vivo study); format: cell-based; conditions: Staphylococcus aureus, MB2985, inoculum 1.4 × 10^5 cfu/mL in cation adjusted MHB, read-out: MIC
Method: The MIC is determined by microdilution in Mueller-Hinton broth (MHB) according to the National Committee for Clinical Laboratory Standards guidelines after incubation for 24 hours. Enterococci are tested in cation-supplemented Mueller-Hinton broth at 1.4×10^5 cfu/ml. MIC is defined as the lowest concentration of antibiotic, which inhibits visible growth.

[3] = system: E. faecium CL 5242 (VanA); experiment: microbe, parasite or virus in culture; format: cell-based; conditions: for MIC, CL5242: E. faecium CL 5242 (VanA)
Outline: as §1

[4] = system: MSSA MB2985 (Smith isolate); experiment: In vitro MIC panel assay, without and with Human Serum Albumin; format: cell-based, Staphylococcus aureus
Source text: as §2, §3, §4, §5

[5] = mouse septicemia, S. aureus 2985 i.p. 1.8 × 10^7 cfu/mouse, single s.c. dose at 0 hr, survival seven days

With `CN[C@H](CC(C)C)C(=O)N[C@H]1C(=O)N[C@@H](CC(N)=O)C(=O)N[C@H]2C(=O)N[C@H]3C(=O)N[C@H](C(=O)N[C@H](C(=O)O)c4cc(O)cc(O)c4-c4cc3ccc4O)[C@H](O)c3ccc(c(Cl)c3)Oc3cc2cc(c3O[C@@H]2O[C@H](CO)[C@@H](O)[C@H](O)[C@H]2O[C@H]2C[C@](C)(N)[C@H](O)[C@H](C)O2)Oc2ccc(cc2Cl)[C@H]1O` [Vancomycin, vancomycin, reference compound] the ED50/MIC ([1]; S. aureus 2985, ratio of s.c. ED50 to MIC) was 2.33, the ED50 ([1]; Staphylococcus aureus, MB2985, mouse septicemia, S. aureus 2985 i.p. 1.8 × 10^7 cfu/mouse, single s.c. dose at 0 hr, survival seven days) was 1.17 mg/kg and the “ED0 (s.c.)” value [1, 5] was “≦0.195 mg/kg”. For the same compound, the “ED100 (s.c.)” value [1, 5] was 3.125 mg/kg, the MIC ([2]; Enterococcus faecium) was 2050 µg/mL (≈ 1410 µM) and the MIC, CL4931 ([2]; Table 9) was 2050 µg/mL (≈ 1410 µM). For the same compound, the MIC, CL4931 ([2]; Table 10) was 2050 µg/mL (≈ 1410 µM), the “CL4931 (in vitro testing)” value ([2]; Tables 7 and 8, unit not given) was 2048 and the MIC (MRSA MH 76) was 1 µg/mL (≈ 0.69 µM). For the same compound, the “% Plasma Bound” value (% Plasma Bound) was 55%, the MIC (S. aureus MB 2985) was 0.5 µg/mL (≈ 0.345 µM) and the MIC ([3]; Enterococcus faecium) was 128 µg/mL (≈ 88.3 µM). The MIC, CL5242 ([3]; Table 9) was 512 µg/mL (≈ 353 µM), the MIC, CL5242 ([3]; Table 10) was 512 µg/mL (≈ 353 µM) and the “CL5242 (in vitro testing)” value ([3]; Tables 7 and 8, unit not given) was 512. For the same compound, the MIC ([4]; MSSA MB2985 + HSA, MH II broth ctg. 43 mg/ml Human Serum Albumin Frac. V) was 1 µg/mL and the “N-fold MIC inc. + HSA” value ([4]; MSSA MB2985, MIC with HSA relative to without) was “(1) fold”.
